From US8247211B2, “Glycopeptide antibiotics” (American Cyanamid Company, priority 2001, dated 2012)
≈ marks a conversion by molar mass, not a printed value.

Key:
[1] = tested on: Streptococcus sp.; assay: In vitro antibacterial evaluation: minimum inhibitory concentration (MIC), broth dilution method; format: cell-based
Summary of the method: (§1)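 Broth dilution per NCCLS M7-A2 in Muller-Hinton II […], inoculum 5×10^5 CFU/mL, antibiotic tested over 64-0.06 μg/mL. MIC is taken as the lowest concentration that inhibits growth. Panel includes recent clinical isolates resistant to methicillin, penicillin and/or vancomycin.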

[2] = tested on: Staphylococcus aureus-SMITH (GC 4543); assay: Acute lethal infection in mice (ED50); format: in vivo; details: female CD-1 mice, intraperitoneal challenge, intravenous dose 30 min. after infection, 7 day survival ratios
Summary of the method: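 Bacteria suspended in Trypticase Soy Broth or hog gastric mucin are injected intraperitoneally into female CD-1 mice at a dose killing untreated animals within 24-48 hr. Thirty minutes later, test agent is administered intravenously. Survival at day 7 is scored.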

[3] = Anatomic pathology (heart and kidney histopathology) in mice; format: in vivo, CD-1 mice; details: 20 mg/kg intravenously daily for 9 days, microscopic histopathology on day 10
Procedure: 20-day-old CD-1 mice were divided into a vehicle control group (5 mice) and a treatment group (5 mice). Samples of glycopeptide antibiotics were administered at 20 mg/kg intravenously daily for 9 days.
Samples of tissues from necropsied mice were formalin-fixed, paraffin-embedded, sectioned, stained with hematoxylin and eosin, and examined microscopically. Histopathologic findings were recorded. These findings were subjectively graded on a scale corresponding to slight, mild, moderate, marked and severe as compared to untreated controls.

[4] = tested on: Escherichia coli; assay: In vitro antibacterial evaluation: minimum inhibitory concentration (MIC), broth dilution method; format: cell-based; details: strain GC 4560
Summary of the method: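 Test strains, among them recent clinical isolates carrying methicillin, penicillin and/or vancomycin resistance, were inoculated at 5×10^5 CFU/mL. A broth dilution series spanning 64-0.06 μg/mL in Muller-Hinton II […] (NCCLS M7-A2) defined the MIC as the lowest growth-inhibiting concentration.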

[5] = tested on: Enterococcus sp.; assay: as above; format: cell-based; details: strain GC 4558
Summary of the method: as §1

[6] = Streptococcus pneumoniae (GC 1894), broth dilution, 18 hours at 35° C.

Compound | MIC Streptococcus pneumoniae (GC 1894) [1, 6] [µg/mL] | MIC Streptococcus pneumoniae (GC 1894) ([1]; strain GC 1894) [µg/mL] | median effective dose (ED50), Staphylococcus aureus-SMITH (GC 4543) [2] | Anatomical Pathology (Day 10), Heart [3] | Anatomical Pathology (Day 10), Kidney [3] | MIC Escherichia coli (GC 4560) [4] [µg/mL] | MIC Enterococcus avium (GC 4558) [5] [µg/mL] | MIC Streptococcus pneumoniae (GC 4565) ([1]; Streptococcus pneumoniae (GC 4565), broth dilution, 18 hours at 35° C.) [µg/mL] | MIC Streptococcus pneumoniae (GC 4565) ([1]; strain GC 4565) [µg/mL]
CC(c1ccccc1)C1NC(=O)CNC(=O)C(CO)NC(=O)C(C(O)C2CN(Cc3ccccc3)C(=N)N2C2OC(CO)C(O)C(O)C2O)NC(=O)C(C(O)C2CNC(=N)N2)NC(=O)C(Cc2ccc(OC3OC(CO)C(OC4OC(CO)C(O)C(O)C4O)C(O)C3O)cc2)NC1=O (stereo not drawn) [Example 59, Cyclo[glycyl-β-methylphenylalanyl-O-(4-O-hexopyranosylhexopyranosyl)tyrosyl-(2-iminoimidazolidin-4-yl)seryl-3-[1-benzyl-3-hexopyranosyl-2-iminoimidazolidin-4-yl]serylseryl]] | 64 (≈ 46.2 µM) | 64 (≈ 46.2 µM) | >8 | 0 | 0 |  |  |  | 
CC(c1ccccc1)C1NC(=O)CNC(=O)C(CO)NC(=O)C(C(O)C2CN(Cc3ccc(C(C)(C)C)cc3)C(=N)N2C2OC(CO)C(O)C(O)C2O)NC(=O)C(C(O)C2CNC(=N)N2)NC(=O)C(Cc2ccc(OC3OC(CO)C(OC4OC(CO)C(O)C(O)C4O)C(O)C3O)cc2)NC1=O (stereo not drawn) [Example 60, Cyclo[glycyl-β-methylphenylalanyl-O-(4-O-hexopyranosylhexopyranosyl)tyrosyl-(2-iminoimidazolidin-4-yl)seryl-3-[1-(4-tert-butylbenzyl)-3-hexopyranosyl-2-iminoimidazolidin-4-yl]-serylseryl]] | 64 (≈ 44.4 µM) | 64 (≈ 44.4 µM) | >8 | 0 | 0 | 16 (≈ 11.1 µM) |  |  | 
CC(c1ccccc1)C1NC(=O)CNC(=O)C(CO)NC(=O)C(C(O)C2CN(CCCCCCCCCCCCO)C(=N)N2C2OC(CO)C(O)C(O)C2O)NC(=O)C(C(O)C2CNC(=N)N2)NC(=O)C(Cc2ccc(OC3OC(CO)C(OC4OC(CO)C(O)C(O)C4O)C(O)C3O)cc2)NC1=O (centres unmarked) [Example 61] | 64 (≈ 43.3 µM) | 64 (≈ 43.3 µM) | >8 | 0 | +++ | 8 (≈ 5.41 µM) | 64 (≈ 43.3 µM) | 64 (≈ 43.3 µM) | 64 (≈ 43.3 µM)
CC(c1ccccc1)C1NC(=O)CNC(=O)C(CO)NC(=O)C(C(O)C2CN(Cc3ccccc3-c3ccccc3)C(=N)N2C2OC(CO)C(O)C(O)C2O)NC(=O)C(C(O)C2CNC(=N)N2)NC(=O)C(Cc2ccc(OC3OC(CO)C(OC4OC(CO)C(O)C(O)C4O)C(O)C3O)cc2)NC1=O (centres unmarked) [Example 65] |  |  | >8 | 0 | +++ | 32 (≈ 21.9 µM) |  |  | 
CC(c1ccccc1)C1NC(=O)CNC(=O)C(CO)NC(=O)C(C(O)C2CN(Cc3ccc(-c4ccccc4)cc3)C(=N)N2C2OC(CO)C(O)C(O)C2O)NC(=O)C(C(O)C2CNC(=N)N2)NC(=O)C(Cc2ccc(OC3OC(CO)C(OC4OC(CO)C(O)C(O)C4O)C(O)C3O)cc2)NC1=O (centres unmarked) [Example 66a] |  |  | >4 | 0 | ++ | 8 (≈ 5.47 µM) |  |  | 
CC(c1ccccc1)C1NC(=O)CNC(=O)C(CO)NC(=O)C(C(O)C2CN(Cc3ccc4ccccc4c3)C(=N)N2C2OC(CO)C(O)C(O)C2O)NC(=O)C(C(O)C2CNC(=N)N2)NC(=O)C(Cc2ccc(OC3OC(CO)C(OC4OC(CO)C(O)C(O)C4O)C(O)C3O)cc2)NC1=O (centres unmarked) [Example 67] | 64 (≈ 44.6 µM) | 64 (≈ 44.6 µM) | >8 | 0 | 0 | 32 (≈ 22.3 µM) | 64 (≈ 44.6 µM) |  | 
